Assay results from article PMC11640089, “JRM-28, a Novel HDAC2 Inhibitor, Upregulates Plasticity-Associated Proteins in Hippocampal Neurons and Enhances Morphological Plasticity via Activation of CREB: Implications for Alzheimer’s Disease” (Cells, 2024).
Several values for one entry are separate records, joined by “and”; a condition that tells them apart may be missing. Identical values can stand only once. Like-named read-outs stand apart in the source and are kept apart here.

How the values were obtained:
HDAC2 = HDAC2 (Homo sapiens, UniProt Q92769); assay: HDAC2 inhibition assay, luminometric method (HDAC-Glo I/II); type: biochemical; parameters: purchased BPS Bioscience 50002; details: HDAC2 0.5 nM, read-out: IC50 HDAC2 inhibition (luminescence)
Sequence of HDAC2 (Q92769 whole entry): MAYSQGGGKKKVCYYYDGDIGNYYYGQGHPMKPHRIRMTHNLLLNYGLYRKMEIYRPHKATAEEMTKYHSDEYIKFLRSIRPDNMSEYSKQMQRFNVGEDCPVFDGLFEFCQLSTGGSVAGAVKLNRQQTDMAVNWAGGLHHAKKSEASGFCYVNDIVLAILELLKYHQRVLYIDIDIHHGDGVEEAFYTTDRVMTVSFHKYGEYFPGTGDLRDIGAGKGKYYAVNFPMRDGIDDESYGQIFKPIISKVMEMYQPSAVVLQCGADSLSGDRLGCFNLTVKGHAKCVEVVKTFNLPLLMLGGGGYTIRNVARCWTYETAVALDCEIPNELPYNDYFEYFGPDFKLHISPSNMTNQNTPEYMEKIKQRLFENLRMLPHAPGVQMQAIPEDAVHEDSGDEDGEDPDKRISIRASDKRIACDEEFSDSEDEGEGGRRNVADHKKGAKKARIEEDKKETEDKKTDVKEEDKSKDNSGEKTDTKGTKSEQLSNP
Experimental: HDAC2 inhibition assay was performed by either the luminometric or fluorimetric method applying the following procedures. The table (Table 1) represents the details of different HDAC proteins and antibodies used in all biochemical assays.
HDAC2 inhibition assay was performed by HDAC-Glo™ I/II Assays and Screening System (Catalog# G6420, Promega Corporation, Madison, WI, USA) by the luminometric method according to the manufacturer’s protocol. […] The HDAC-2 inhibition assay was performed as previously described to determine IC values. In brief, the purified HDAC2 was diluted in HDAC assay buffer (provided with the HDAC-Glo™ I/II Assays and Screening System) to the same concentration based on their calculated molar mass. […] Next, 10 µL of JRM-28 after serial dilution was added to 10 µL of diluted HDAC2 in such a way that the final HDAC2 concentration was 0.5 nM in each well of a 384-well microplate (Greiner, Kremsmünster, Austria). After 30 min of incubation, 20 µL of the HDAC-Glo substrate/developing reagent was added to each well according to the manufacturer’s instructions. The 384-well plate was then agitated on an orbital shaker for the mixing of components in each well for another 30 min at room temperature. Finally, luminescence was measured using a POLARstar Omega plate reader (BMG Labtech, Ortenberg, Germany).

HDAC6 = biological target: T1, HDAC6 (Homo sapiens, UniProt Q9UBN7); assay: Fluorimetric HDAC inhibition assay, HDAC6; type: biochemical; details: reduced with DTT
T1 construct: purchased BPS Bioscience 50056
T1 sequence (Q9UBN7 1-1215): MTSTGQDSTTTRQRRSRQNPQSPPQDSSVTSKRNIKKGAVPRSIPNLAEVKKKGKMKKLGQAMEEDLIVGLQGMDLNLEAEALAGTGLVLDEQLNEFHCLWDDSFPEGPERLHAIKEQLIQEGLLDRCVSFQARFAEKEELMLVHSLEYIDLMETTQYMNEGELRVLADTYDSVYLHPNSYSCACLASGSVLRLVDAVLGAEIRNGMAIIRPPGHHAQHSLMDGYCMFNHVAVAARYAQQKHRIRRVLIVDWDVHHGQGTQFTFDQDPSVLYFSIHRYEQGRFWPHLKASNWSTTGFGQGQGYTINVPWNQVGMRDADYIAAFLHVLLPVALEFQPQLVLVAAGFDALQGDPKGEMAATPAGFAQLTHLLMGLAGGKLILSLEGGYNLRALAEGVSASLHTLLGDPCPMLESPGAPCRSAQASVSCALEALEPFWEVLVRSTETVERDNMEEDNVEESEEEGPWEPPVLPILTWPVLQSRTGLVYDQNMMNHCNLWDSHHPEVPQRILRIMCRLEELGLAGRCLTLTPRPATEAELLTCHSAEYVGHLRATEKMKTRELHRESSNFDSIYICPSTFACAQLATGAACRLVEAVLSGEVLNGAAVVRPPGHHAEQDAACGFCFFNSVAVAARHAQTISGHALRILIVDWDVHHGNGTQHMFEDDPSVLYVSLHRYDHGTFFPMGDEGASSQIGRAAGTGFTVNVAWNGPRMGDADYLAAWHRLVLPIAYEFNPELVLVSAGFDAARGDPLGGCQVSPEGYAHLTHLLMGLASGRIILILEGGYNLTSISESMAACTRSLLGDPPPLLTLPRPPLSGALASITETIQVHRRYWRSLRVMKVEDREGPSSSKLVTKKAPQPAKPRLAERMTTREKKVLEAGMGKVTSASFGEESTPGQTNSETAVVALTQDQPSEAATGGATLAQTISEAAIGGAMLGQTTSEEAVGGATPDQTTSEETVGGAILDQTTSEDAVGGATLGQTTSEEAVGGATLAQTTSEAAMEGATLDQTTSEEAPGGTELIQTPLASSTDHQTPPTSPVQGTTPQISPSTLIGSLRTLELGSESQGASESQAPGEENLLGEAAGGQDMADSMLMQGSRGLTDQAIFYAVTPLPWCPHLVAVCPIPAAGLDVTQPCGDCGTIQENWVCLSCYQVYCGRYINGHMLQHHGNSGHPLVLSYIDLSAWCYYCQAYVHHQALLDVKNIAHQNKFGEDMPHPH
Experimental: The inhibition of HDAC1, 2, 3, and 6 by JRM-28 was fluorometrically measured using the HDAC Fluorogenic Assay Kit (Catalog# 50034) by BPS bioscience. Purified recombinant human HDAC1 (Cat# 50051), HDAC3 (Cat# 50003), and HDAC6 (Cat# 50056) were also obtained from BPS Bioscience. The enzyme inhibition assay was performed according to the manufacturer’s protocol. […] Purified recombinant HDAC2 (supplied with the fluorogenic kit) was diluted to 6 ng/µL (5 µL/well with the supplied HDAC assay buffer). HDAC 1, 3, and 6 were also diluted to the optimized concentration (5 µL/well) with the HDAC assay buffer. The activity of JRM-28 was measured along with DTT control and DMSO as blank. After adding 5 µL of the diluted HDAC enzymes in designated wells, the 96-well plate (supplied with the kit) was incubated at 37 °C. Then, the reaction was initiated by adding 5 µL of diluted HDAC substrate to each well, followed by another incubation at 37 °C for 30 min. Next, 50 µL of the developer reagent was added to each well and incubated at room temperature for another 15 min. Finally, fluorescence was measured by a microplate absorbance spectrophotometer (PerkinElmer Enspire 2300 Multilabel Multimode Microplate Reader) with an excitation at λ = 485 nm and detection at λ = 528 nm.

CN(C(=O)C[C@@H](O)/C=C/CCS)c1ccccc1 [JRM-28b]
IC50 (HDAC2; in the presence of DTT (reduced)): 2.7 µM and 2.71 µM

CN(C(=O)C[C@@H](O)/C=C/CCS(=O)O)c1ccccc1 [JRM-28a]
Hill coefficient HDAC6 (fluorimetric) (HDAC6): −5.116

CN(C(=O)CC(O)/C=C/CCSSCC/C=C/C(O)CC(=O)N(C)c1ccccc1)c1ccccc1 (stereo not drawn) [JRM-20, (4E,4’E)-7,7’-disulfanediylbis(3-hydroxy-N-methyl-N-phenylhept-4-enamide)]
IC50 (HDAC2; without DTT (non-reduced dimer)): 12.9 µM
